For data set [1], the target named is T1, ATP-binding cassette sub-family C member 2 (Homo sapiens, UniProt Q92887). Nature of the data set: TP_TRANSPORTER: increase cell accumulation of erythromycin in hMRP2-expressing MDCK2 cells. Format: functional, cell-based. The following applies: dog, mdck-ii.
Data set [2] deals with T1, ATP-binding cassette sub-family C member 2. Nature of the data set: TP_TRANSPORTER: increase cell accumulation of cyclosporine-A in hMRP2-expressing MDCK2 cells. Format: functional, cell-based. The following applies: dog, mdck-ii.

T1 sequence (Q92887 whole entry): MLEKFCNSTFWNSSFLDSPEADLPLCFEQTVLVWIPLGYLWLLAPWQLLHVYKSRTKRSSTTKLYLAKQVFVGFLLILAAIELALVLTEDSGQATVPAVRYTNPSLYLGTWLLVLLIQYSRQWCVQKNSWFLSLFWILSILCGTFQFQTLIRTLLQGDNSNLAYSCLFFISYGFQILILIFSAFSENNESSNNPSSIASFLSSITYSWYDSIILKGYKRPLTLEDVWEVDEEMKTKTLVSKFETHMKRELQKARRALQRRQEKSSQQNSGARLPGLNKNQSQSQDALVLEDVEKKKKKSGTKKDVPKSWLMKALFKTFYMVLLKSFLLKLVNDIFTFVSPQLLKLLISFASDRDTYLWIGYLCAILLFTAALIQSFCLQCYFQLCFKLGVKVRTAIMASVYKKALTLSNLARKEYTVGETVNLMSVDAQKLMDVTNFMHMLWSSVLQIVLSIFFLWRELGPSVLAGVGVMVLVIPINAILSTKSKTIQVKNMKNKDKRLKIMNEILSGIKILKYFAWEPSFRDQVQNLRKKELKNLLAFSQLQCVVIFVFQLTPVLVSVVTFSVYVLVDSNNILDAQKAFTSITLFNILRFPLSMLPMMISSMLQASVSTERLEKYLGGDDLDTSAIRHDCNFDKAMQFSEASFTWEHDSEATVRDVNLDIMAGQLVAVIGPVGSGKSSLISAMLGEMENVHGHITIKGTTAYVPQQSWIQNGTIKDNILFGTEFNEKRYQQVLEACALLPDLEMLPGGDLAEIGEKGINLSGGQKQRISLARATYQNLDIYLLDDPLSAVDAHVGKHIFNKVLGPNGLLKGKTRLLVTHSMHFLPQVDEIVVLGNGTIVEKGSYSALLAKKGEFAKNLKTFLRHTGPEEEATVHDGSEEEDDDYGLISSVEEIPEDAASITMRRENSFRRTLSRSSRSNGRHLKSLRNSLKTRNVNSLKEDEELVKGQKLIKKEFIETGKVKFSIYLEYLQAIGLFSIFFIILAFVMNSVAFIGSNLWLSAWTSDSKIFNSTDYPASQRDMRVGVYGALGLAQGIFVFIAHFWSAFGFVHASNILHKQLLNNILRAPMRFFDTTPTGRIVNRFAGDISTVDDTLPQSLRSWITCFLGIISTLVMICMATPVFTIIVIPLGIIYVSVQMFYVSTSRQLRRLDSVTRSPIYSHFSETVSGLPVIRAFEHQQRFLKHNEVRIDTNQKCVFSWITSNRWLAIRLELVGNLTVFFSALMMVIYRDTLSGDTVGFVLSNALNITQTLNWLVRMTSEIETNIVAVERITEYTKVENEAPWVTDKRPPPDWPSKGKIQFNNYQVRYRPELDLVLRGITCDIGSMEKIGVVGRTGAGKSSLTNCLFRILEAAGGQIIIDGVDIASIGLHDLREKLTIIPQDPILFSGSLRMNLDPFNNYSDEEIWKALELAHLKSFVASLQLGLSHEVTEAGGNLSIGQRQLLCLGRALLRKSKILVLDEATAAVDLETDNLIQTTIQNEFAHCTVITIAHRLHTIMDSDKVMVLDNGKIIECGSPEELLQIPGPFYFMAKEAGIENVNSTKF

As for `CN(C)C(=O)CCSC(SCCC(=O)O)c1cccc(/C=C/c2ccc3ccc(Cl)cc3n2)c1` (configuration not stated) [MK-571], the Activity in data set [1] was found to be 195%; in data set [2] it was 156%.

For the origin of these results see ChEMBL document CHEMBL2074519, “Molecular evidence and functional expression of a novel drug efflux pump (ABCC2) in human corneal epithelium and rabbit cornea and its role in ocular drug efflux” (Int J Pharm, 2006).
